In brackets after ≈: the same amount, converted by molar mass.
Tests used:
[1] = system: Escherichia coli ATCC 10536; assay: MIC by agar dilution; format: cell-based; details: ATCC10536, 37 °C, 20 h, read-out: Minimum inhibitory concentration (MIC)
Method: (§1) The MICs of the synthesized compound were determined by agar dilution method according to the Clinical Laboratory and Standards Institute Guidelines (CLSI, 2015). Briefly, the tested strains were incubated overnight in tryptic soy broth (TSB) (Oxoid, United Kingdom) and then diluted in Muller–Hinton (MH) broth (Oxoid, United Kingdom) to turbidity approximating to the equivalent of 0.5 McFarland standard. The suspensions were further diluted with sterile saline (1:10) and standardized inoculums (approximately 10^4 CFU per spot) were spotted on the surfaces of MH agar (Oxoid, United Kingdom) plates containing different concentrations of tested compounds and a control plate. The MICs were the lowest concentrations that inhibit growth on the plates after incubation at 37 °C for 20 h.

[2] = system: Klebsiella pneumoniae ATCC 27736; assay: MIC by agar dilution; format: cell-based; details: ATCC27736, 37 °C, 20 h, read-out: Minimum inhibitory concentration (MIC)
Method: as §1

[3] = system: Micrococcus spp. ATCC 10240; assay: MIC by agar dilution; format: cell-based; details: ATCC10240, 37 °C, 20 h, read-out: Minimum inhibitory concentration (MIC)
Method: as §1

[4] = system: Salmonella typhimurium ATCC 14028; assay: MIC by agar dilution; format: cell-based; details: Salmonella enterica, 37 °C, 20 h, read-out: Minimum inhibitory concentration (MIC)
Method: as §1

[5] = system: Staphylococcus aureus ATCC 6538; assay: MIC by agar dilution; format: cell-based; details: ATCC6538, 37 °C, 20 h, read-out: Minimum inhibitory concentration (MIC)
Method: as §1

[6] = system: Staphylococcus epidermidis ATCC 12228; assay: MIC by agar dilution; format: cell-based; details: ATCC12228, 37 °C, 20 h, read-out: Minimum inhibitory concentration (MIC)
Method: as §1

[7] = system: Pseudomonas aeruginosae ATCC 47085; assay: MIC by agar dilution; format: cell-based, Pseudomonas aeruginosa; details: ATCC47085, 37 °C, 20 h, read-out: Minimum inhibitory concentration (MIC)
Method: as §1

[8] = system: Aspergillus niger ATCC 16404; assay: MIC by agar dilution (antifungal); format: cell-based; details: ATCC16404, read-out: Minimum inhibitory concentration (MIC)
Method: as §1

[9] = system: Candida albicans ATCC 10231; assay: MIC by agar dilution (antifungal); format: cell-based; details: Candida albicans, ATCC10231, Candida albicans ATCC 10231, read-out: Minimum inhibitory concentration (MIC)
Method: as §1

[10] = system: BxPC-3; assay: SRB cellular proliferation assay; format: cell-based, human; details: Homo sapiens, BxPC-3 cells, mean ± SD (n = 3), read-out: IC50
Method: (§2) The pancreatic human cancer cell lines BxPC-3 and Panc-1, the human hepatocellular carcinoma (HepG-2), and the normal immortalized pancreatic cell line HPDE, that were used in this study, were obtained from the American Type Culture Collection (Rockville, USA). Cell lines were cultured and treated with the tested compounds or dimethyl sulfoxide (DMSO) as previously described. Cells were cultivated in DMEM medium (Invitrogen, Carlsbad, CA, USA), supplemented with streptomycin, penicillin and fetal bovine serum (FCS) (Invitrogen, Carlsbad, CA, USA). The sulforhodamine B (SRB) assay was employed to assess the anti-proliferative effects of tested compounds on cancer cells. Cell lines were incubated and regularly treated with DMSO or increasing doses of tested compounds for 48 h. The cells were fixed with 10% trichloroacetic acid and stained with SRB fluorescent dye for 30 min. Then, the bounded SRB dye to cellular proteins was dissolved in 10 mM Tris base after washing excess dye with 1% acetic acid. The absorbance was measured at 510 nm in a reader (Biotek, Winooski, VT, USA).

[11] = system: HepG-2; assay: SRB cellular proliferation assay; format: cell-based, human; details: Homo sapiens, HepG2, HepG-2 cells, mean ± SD (n = 3), read-out: IC50
Method: as §2

[12] = system: Panc-1; assay: SRB cellular proliferation assay; format: cell-based, human; details: Homo sapiens, Panc-1 cells, mean ± SD (n = 3), read-out: IC50
Method: as §2

[13] = system: S. aureus ATCC 6538; assay: Biofilm formation assay (crystal violet, light microscopy); format: cell-based, Staphylococcus aureus; details: sub-MIC, light microscopy image
Method: (§3) Bacterial virulence is regulated via a quorum sensing (QS) system in an inducer/receptor manner. Diminishing bacterial virulence is an advantageous strategy to decrease the development of bacterial resistance. In this direction, anti-virulence and anti-QS activities have been explored in several studies as reviewed. The ability of P. aeruginosa or S. aureus to form biofilms was assayed in the absence or presence of tested compounds at sub-MIC. […] The experiment was conducted in triplicate and a one-way ANOVA test was employed to test the statistical significance using Graphpad Prism 8 software. The results were significant statistically where p values < 0.05. Moreover, microscopic visualization of biofilm under the effect of tested compounds was also performed by light microscopy. Representative images for the inhibitory effects on S. aureus and P. aeruginosa biofilm formation are shown (Figure 3C,D). The microscopic images show a marked reduction in both the thickness of and surface area covered by the biofilms in presence of the tested compound.
(§4) In order to evaluate the ability of the tested compounds to inhibit the biofilm formation, a strong biofilm forming P. aeruginosa ATCC 47,085 [47, 66] and S. aureus ATCC 6538 [67] strains were used. As described earlier, suspensions of tested strains were prepared from overnight cultures in TSB and their optical densities were adjusted to OD600 of 0.4 (1×10^8 CFU/mL). Aliquots of 10 μL of the suspensions were added to 1 mL amounts of fresh TSB with or without sub-MICs of tested compounds. […] The non-adherent cells were removed, the wells were washed with sterile PBS, and left to dry. The attached biofilm forming cells were fixed with methanol for 25 min and stained with 1% crystal violet for 30 min. The excess dye was washed out and the crystal violet staining adhered biofilm forming cells were eluted by glacial acetic acid (33%). The experiment was conducted in triplicate and the absorbance was measured at 590 nm. The absorbances of tested strains treated with different compounds were expressed as mean ± standard error of percentage change from untreated tested strains control. The percentages of biofilm inhibition were calculated employing the following formula: (absorbance of control—absorbance in presence of tested compounds)/absorbance of control.

[14] = system: P. aeruginosa ATCC 47,085; assay: as above; format: cell-based, Pseudomonas aeruginosa; details: sub-MIC, light microscopy image
Method: as §3, §4

Compound | MIC [1] | MIC [2] | MIC [3] | MIC [4] | MIC [5] | MIC [6] | MIC [7] | MIC [8] | MIC [9] | IC50 [10] | IC50 [11] | IC50 [12] | melting point | Biofilm formation, microscopic visualization [13] | Biofilm formation, microscopic visualization [14]
CC1(C)S[C@@H]2[C@H](NC(=O)[C@H](N)c3ccc(O)cc3)C(=O)N2[C@H]1C(=O)O [Amoxycillin, reference compound] | 0.5 µg/mL (≈ 1.37 µM) | 1 µg/mL (≈ 2.74 µM) | 0.25 µg/mL (≈ 0.684 µM) | 1 µg/mL (≈ 2.74 µM) | 0.5 µg/mL (≈ 1.37 µM) | 0.5 µg/mL (≈ 1.37 µM) | 2 µg/mL (≈ 5.47 µM) |  |  |  |  |  |  |  | 
CO/N=C(\C(=O)N[C@@H]1C(=O)N2C(C(=O)O)=C(COC(C)=O)CS[C@H]12)c1csc(N)n1 [Cefotaxime, reference compound] | 0.125 µg/mL (≈ 0.274 µM) | 0.5 µg/mL (≈ 1.1 µM) | 0.25 µg/mL (≈ 0.549 µM) | 1 µg/mL (≈ 2.2 µM) | 0.5 µg/mL (≈ 1.1 µM) | 0.25 µg/mL (≈ 0.549 µM) | 1 µg/mL (≈ 2.2 µM) |  |  |  |  |  |  |  | 
COc1ccc(OC)c(/C=C2/N=C(c3ccccc3NS(=O)(=O)c3ccc(C)cc3)OC2=O)c1 [Compound 9c, (E)-N-(2-(4-(2,5-diMethoxybenzylidene)-5-oxo-4,5-dihydrooxazol-2-yl)phenyl)-4-methylbenzenesulfonamide] | 4 µg/mL (≈ 8.36 µM) | 8 µg/mL (≈ 16.7 µM) | 4 µg/mL (≈ 8.36 µM) | 8 µg/mL (≈ 16.7 µM) | 8 µg/mL (≈ 16.7 µM) | 4 µg/mL (≈ 8.36 µM) | 16 µg/mL (≈ 33.4 µM) | 8 µg/mL (≈ 16.7 µM) | 4 µg/mL (≈ 8.36 µM) | 21.5 ± 1.08 µg/mL (≈ 44.9 µM) | 19.1 ± 3.23 µg/mL (≈ 39.9 µM) | 15.1 ± 4.13 µg/mL (≈ 31.6 µM) | 220 to 222 °C |  | 
COc1cc(/C=C2/N=C(c3ccccc3NS(=O)(=O)c3ccc(C)cc3)OC2=O)cc(OC)c1OC [Compound 9d, (E)-4-Methyl-N-(2-(5-oxo-4-(3,4,5-trimethoxybenzylidene)-4,5-dihydrooxazol-2-yl)phenyl)be-nzenesulfonamide] | 4 µg/mL (≈ 7.87 µM) | 16 µg/mL (≈ 31.5 µM) | 2 µg/mL (≈ 3.93 µM) | 16 µg/mL (≈ 31.5 µM) | 4 µg/mL (≈ 7.87 µM) | 2 µg/mL (≈ 3.93 µM) | 32 µg/mL (≈ 62.9 µM) | > 32 µg/mL | > 32 µg/mL | 18.1 ± 3.56 µg/mL (≈ 35.5 µM) | 22.7 ± 2.3 µg/mL (≈ 44.7 µM) | 25.3 ± 1.91 µg/mL (≈ 49.8 µM) | 230 to 232 °C |  | 
Cc1ccc(S(=O)(=O)Nc2ccccc2C2=N/C(=C/c3ccc(Cl)cc3)C(=O)O2)cc1 [Compound 9e, (E)-N-(2-(4-(4-Chlorobenzylidene)-5-oxo-4,5-dihydrooxazol-2-yl)phenyl)-4-methylbenzenesulfonamide] | 4 µg/mL (≈ 8.83 µM) | 2 µg/mL (≈ 4.42 µM) | 2 µg/mL (≈ 4.42 µM) | 4 µg/mL (≈ 8.83 µM) | 2 µg/mL (≈ 4.42 µM) | 2 µg/mL (≈ 4.42 µM) | 8 µg/mL (≈ 17.7 µM) | 16 µg/mL (≈ 35.3 µM) | 8 µg/mL (≈ 17.7 µM) | 13.3 ± 1.57 µg/mL (≈ 29.3 µM) | 15 ± 2.89 µg/mL (≈ 33.2 µM) | 12.2 ± 1.29 µg/mL (≈ 26.8 µM) | 234 to 236 °C | markedly reduced | markedly reduced

Reference: PMC8838850, “Synthesis, Antimicrobial, Anti-Virulence and Anticancer Evaluation of New 5(4H)-Oxazolone-Based Sulfonamides” (Molecules, 2022)
